Assays:
MMP-9 [1] = biological target: T1, MMP-9 (Homo sapiens (Human), UniProt P14780); test: Enzyme inhibition, MMP-9 catalytic domain; format: biochemical; details: for residence time: calculated as 1/koff
Target sequence in this assay (P14780 107-444): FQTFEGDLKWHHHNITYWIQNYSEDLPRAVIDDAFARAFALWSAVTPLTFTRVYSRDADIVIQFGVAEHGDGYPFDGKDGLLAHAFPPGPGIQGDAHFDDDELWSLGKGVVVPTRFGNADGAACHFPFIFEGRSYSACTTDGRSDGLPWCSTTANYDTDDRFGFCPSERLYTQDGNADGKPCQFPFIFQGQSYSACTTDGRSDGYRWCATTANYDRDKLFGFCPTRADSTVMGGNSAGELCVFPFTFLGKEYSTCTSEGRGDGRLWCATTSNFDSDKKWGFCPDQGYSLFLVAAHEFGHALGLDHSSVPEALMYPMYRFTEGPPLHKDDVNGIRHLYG
Description: (§1) Inhibitor stock solutions (10 mM) were prepared freshly in DMSO before enzyme inhibition assays. […] Enzyme inhibition studies were carried out using a Cary Eclipse fluorescence spectrophotometer (Varian, Walnut Creek, Calif., USA).

[2] = system: ultraviolet B irradiated murine skin; details: Kobayashi & Shinkai (2005); cited from earlier work
MMP-8 = MMP-8 (Homo sapiens (Human), UniProt P22894); test: Enzyme inhibition, MMP-8 catalytic domain; format: biochemical
Description: as §1

MMP-2 = MMP-2 (Homo sapiens (Human), UniProt P08253); details: for comparison; cited from earlier work
MMP-9 [3] = biological target: T1, MMP-9; details: for comparison; cited from earlier work
Target sequence in this assay (P14780 94-707, species assumed): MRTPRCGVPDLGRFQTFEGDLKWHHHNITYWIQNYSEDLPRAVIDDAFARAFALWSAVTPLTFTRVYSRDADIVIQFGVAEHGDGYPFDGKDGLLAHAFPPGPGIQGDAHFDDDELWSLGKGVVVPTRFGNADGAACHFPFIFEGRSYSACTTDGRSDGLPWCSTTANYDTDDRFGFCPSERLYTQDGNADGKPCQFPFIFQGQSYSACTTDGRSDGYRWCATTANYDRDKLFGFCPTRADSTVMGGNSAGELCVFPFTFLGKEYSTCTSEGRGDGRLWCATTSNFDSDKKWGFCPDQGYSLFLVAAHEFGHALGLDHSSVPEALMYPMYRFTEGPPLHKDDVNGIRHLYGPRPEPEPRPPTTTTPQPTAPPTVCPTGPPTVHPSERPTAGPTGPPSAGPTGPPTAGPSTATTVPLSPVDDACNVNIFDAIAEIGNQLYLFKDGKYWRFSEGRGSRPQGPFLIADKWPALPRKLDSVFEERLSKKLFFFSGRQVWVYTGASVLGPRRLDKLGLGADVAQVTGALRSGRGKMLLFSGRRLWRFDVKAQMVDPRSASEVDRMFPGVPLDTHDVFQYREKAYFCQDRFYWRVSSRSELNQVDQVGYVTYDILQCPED

Sequence of MMP-8 (P22894 100-262): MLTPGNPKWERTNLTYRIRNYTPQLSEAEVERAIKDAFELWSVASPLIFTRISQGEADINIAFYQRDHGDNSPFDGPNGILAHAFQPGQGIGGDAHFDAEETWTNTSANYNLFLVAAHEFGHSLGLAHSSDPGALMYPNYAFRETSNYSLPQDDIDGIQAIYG
Sequence of MMP-2 (P08253 110-660, species assumed): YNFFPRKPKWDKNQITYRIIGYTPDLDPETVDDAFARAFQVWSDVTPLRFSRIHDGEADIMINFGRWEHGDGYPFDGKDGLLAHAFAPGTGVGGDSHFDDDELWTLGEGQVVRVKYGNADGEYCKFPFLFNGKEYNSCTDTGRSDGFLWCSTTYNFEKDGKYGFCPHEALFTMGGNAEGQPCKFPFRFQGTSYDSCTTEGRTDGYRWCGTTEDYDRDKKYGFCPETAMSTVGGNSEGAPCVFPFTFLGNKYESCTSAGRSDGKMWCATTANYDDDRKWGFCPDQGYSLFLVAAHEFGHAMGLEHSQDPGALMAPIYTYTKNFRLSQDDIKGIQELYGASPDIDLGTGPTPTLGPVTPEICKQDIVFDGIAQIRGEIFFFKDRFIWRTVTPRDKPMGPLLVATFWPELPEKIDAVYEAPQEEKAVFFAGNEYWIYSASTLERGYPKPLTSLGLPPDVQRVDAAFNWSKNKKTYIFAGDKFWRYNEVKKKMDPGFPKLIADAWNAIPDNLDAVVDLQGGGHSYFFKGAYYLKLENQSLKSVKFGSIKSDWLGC

Row | Compound | Inhibition type, MMP-9 (MMP-9 [1]) | Inhibition type, MMP-8 (MMP-8) | Ki (MMP-8) | residence time (MMP-9 [1]) | also measured
1 | Nc1ccc(Oc2ccc(S(=O)(=O)CC3CS3)cc2)cc1 (stereo not shown) [ND-322] | slow-binding |  |  |  | 
2 | CCC(=C/[C@H](C)C/C=C/C(C)=C/[C@@H](C)C(=O)[C@@H](C)[C@H](O)[C@@H](C)C/C(C)=C/C(=O)O)/C=C/[C@@H]1OC(=O)C=C[C@@H]1C [leptomycin B] |  |  |  |  | inflammation in ultraviolet B irradiated murine skin [2]: suppressed inflammation
3 | COC(=O)Nc1ccc(Oc2ccc(S(=O)(=O)CC3CS3)cc2)cc1 (stereo not shown) [ND-380] | slow-binding | non-competitive | 13000 nM | 19.6 min | 
4 | TIMP1: endogenous protein inhibitor, tissue inhibitor of metalloproteinase |  |  |  |  | residence time of TIMP on MMP-2 (MMP-2): 6.9 min; residence time of TIMP on MMP-9 (MMP-9 [3]): 7.9 min
5 | O=S(=O)(CC1CS1)c1ccc(Oc2ccc(O)cc2)cc1 (stereo not shown) [p-OH SB-3CT] | slow-binding | non-competitive | 2600 nM | 24.5 min | Ki (MMP-9 [1]): 160 nM
